Reference: paper PMC3938723, “Learning from Host-Defense Peptides: Cationic, Amphipathic Peptoids with Potent Anticancer Activity” (PLoS ONE, 2014)
Non-standard residues stand in square brackets, D forms with d. Residues, ends and D or L forms follow the SMILES beside them. Nspe = C[C@H](NCC(=O)O)c1ccccc1; Nlys = NCCCCNCC(=O)O

Test system: Primary dermal fibroblast
Test: MTS cell viability assay, primary dermal fibroblasts
Format: cell-based
Details: 72 h
Procedure: MCF-7, MCF-7/TxT50 and OVCAR-3 (available in ATCC) were kindly provided by Professor Branimir Sikic's lab at Stanford University, and were cultured in McCoy's 5A media (GIBCO) with 10% FBS and antibiotics. Primary dermal fibroblasts were gifts from Lifeline Cell Technology and were cultured <6 passages according to the protocol Lifeline provides. All the cells were cultured in cell incubators (Thermo Scientific) at 37°C with 5% CO2.
This assay is a colorimetric method for determining the number of viable cells in proliferation. Aliquots of 100 µl media containing 1×10^4 cells were distributed into each well of a 96-well plate (BD Falcon). The following day, when cell density reaches about ∼40% confluency, the cell media were removed and replaced with serial dilutions of peptoid stocks in culturing media. For peptoid dilutions, peptoid stocks were initially diluted in media at 100 µM and then diluted by half in series using a multichannel pipette, and maintained in 100 µl media for each concentration with triple repeats. After peptoid solutions were transferred onto cells in 96-well plates, cells were incubated at 37°C for certain time periods. Then 20 µl of the CellTiter 96 Aqueous Non-Radioactive cell proliferation assay (Promega) reagent which contains a tetrazolium compound, [3-(4,5-dimethylthiazol-2-yl)-5-(3-carboxymethoxyphenyl)-2-(4-sulfophenyl)-2H-tetrazolium, inner salt; MTS(a)], was added to each well and cells were further incubated for 2 h to metabolize. The absorbance of formazan products were measured at 490 nm in a microplate reader (Molecular Devices). Percentage of cell viability = (A -A testblank)/(A control -A blank)×100, where A is the absorbance of the test well and A control the average absorbance of wells with cells not treated with peptoids. A testblank (media, MTS, and diluted peptoids) and A blank (media and MTS) were background absorbances measured in the absence of cells.
The activity and selectivity of these peptoids against cancer cells were evaluated in vitro. Their cytotoxicity was tested in three cancer cell lines, MCF-7 (human breast cancer), LNCaP (human prostate cancer), and OVCAR-3 (human ovarian cancer). To estimate the selectivity of these peptoids in vitro, hemolytic activities of some peptoids were cited from previously published work (Table 2 **column), and the MRC-5 cell line (human fibroblasts derived from fetal lung tissues) and primary dermal fibroblasts were also tested as normal cell controls. Briefly, cells were treated with peptoids diluted in culturing media for certain time periods, and then cell viability was measured via MTS assays.

Structure (SMILES): C[C@@H](c1ccccc1)N(CC(N)=O)C(=O)CN(C(=O)CN(CCCCN)C(=O)CN(C(=O)CN(C(=O)CN(CCCCN)C(=O)CN(C(=O)CN(C(=O)CN(CCCCN)C(=O)CN(C(=O)CN(C(=O)CNCCCCN)[C@@H](C)c1ccccc1)[C@@H](C)c1ccccc1)[C@@H](C)c1ccccc1)[C@@H](C)c1ccccc1)[C@@H](C)c1ccccc1)[C@@H](C)c1ccccc1)[C@@H](C)c1ccccc1 [Peptoid 1, H-(NLys-Nspe-Nspe)4-NH2] (H-[Nlys][Nspe][Nspe][Nlys][Nspe][Nspe][Nlys][Nspe][Nspe][Nlys][Nspe][Nspe]-NH2)
- LC50 Primary dermal fibroblast: 8 µM
